Like-named read-outs stand apart in the source and are kept apart here.

One series addresses recombinant human CK2 (Homo sapiens (Human), UniProt P68400). Put plainly: CK2 assay (cell-free, 33P-ATP filter plate). The class given is biochemical. The conditions noted are these: for inhibition at 10 µM: read-out: CK2 % inhib @ 10 uM; for inhibition at 5 µM: read-out: CK2 Inhibition.
In another series the target is PARP-HSA enzyme (Homo sapiens (Human), UniProt P09874). Put plainly: PARP assay (chemiluminescent PARP assay kit, Trevigen). The class given is biochemical. The settings on record: for PARP Inhibition: at 1 μM; for IC50: read-out: PARP Inhibition IC50. Here is the method:
Modulatory activity of compounds described herein was assessed in vitro in cell-free CK2 assays. Modulatory activity of compounds described herein also are assessed in vitro in cell-free PARP assays. These assays are described hereafter.
PARP assays are conducted using a chemiluminescent PARP assay kit (Trevigen). Briefly, reactions are performed in Histone-coated strip wells, by adding 10 microliters test compound dissolved in 1×PARP Buffer (prepared by mixing 20×PARP buffer diluted with high-purity water) and 15 microliters diluted PARP-HSA enzyme (diluted in 1×PARP buffer, 0.1 unit per well) to 25 microliters PARP cocktail (prepared from 10×PARP cocktail and 10× activated DNA, both 2.5 microliters per well and 20 microliters per well of 1×PARP buffer). The reactions are incubated at ambient temperature for 60 minutes, then the liquid was removed. After washing the wells four times with PBS (200 ul), 50 microliters of STREP-HRP (Horseradish Peroxidase) solution (diluted 500-fold in 1× Strep-Diluent) was added and the reactions were allowed to incubate for 30 minutes at ambient temperature. The liquid was removed and, after washing the wells four times with PBS (200 ul), 50 microliters each of PeroxyGlo A and B (Chemiluminescent Horseradish Peroxidase substrates) are added and the resulting chemiluminescence quantified on the SpectraMax M5 plate reader.

The test system of the next series is MDA MB231. The series is described as follows: MDA MB231 IC50 (Table 46). The class given is cell-based. The conditions noted are these: Homo sapiens, MDA-MB-231.
The subject of a further series is MV-411. The series is described as follows: MV-411 IC50 (Table 46). The class given is cell-based. The conditions noted are these: Homo sapiens, MV4-11.
For series [1], the system named is K-562. The series is described as follows: K-562 IC50 (Table 46). In kind it is cell-based. The conditions noted are these: Homo sapiens, K562.
In series [2] the test system is PC-3 human prostatic cancer cells. Put plainly: Cell-proliferation assay using Alamar Blue dye. In kind it is cell-based. The conditions noted are these: read-out: PC3 IC50. The essentials: (§1)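 MiaPaca, HCT-116 or PC-3 cells (4,000-5,000 per well) exposed to compound dilutions for 4 days at 37 °C, 5% CO2. Alamar Blue then added for 4 h; fluorescence read at Ex 544/Em 590 nm versus untreated and medium-only controls.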
In general terms: Alamar Blue is a resazurin reagent that responds to reducing activity.

The target of another series is recombinant human PIM1 (Homo sapiens (Human), UniProt P11309). The series is described as follows: PIM-1 kinase activity in cell-free in vitro assay. In kind it is biochemical. The settings on record: for inhibition at 0.5 µM: 500 nM compound, read-out: PIM-1: % inh 500 nM.
recombinant human PIM1, sequence (P11309 whole entry): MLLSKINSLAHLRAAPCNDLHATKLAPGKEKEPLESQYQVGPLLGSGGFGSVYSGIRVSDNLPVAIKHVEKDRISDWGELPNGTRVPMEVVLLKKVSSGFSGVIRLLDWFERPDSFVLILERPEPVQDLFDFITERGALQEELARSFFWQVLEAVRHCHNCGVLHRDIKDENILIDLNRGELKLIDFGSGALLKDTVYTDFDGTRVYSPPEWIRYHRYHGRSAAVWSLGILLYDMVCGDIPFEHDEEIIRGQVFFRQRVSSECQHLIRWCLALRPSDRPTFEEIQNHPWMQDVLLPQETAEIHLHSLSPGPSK
Series [3] relates to K-562. Put plainly: Cell proliferation modulatory activity, K-562. The settings on record: Homo sapiens, K562. In kind it is cell-based.
The test system of the next series is Jurkat. The series is described as follows: Cell proliferation modulatory activity, Jurkat. In kind it is cell-based. The conditions noted are these: Homo sapiens.
For series [4], the system named is HCT-116 human colorectal carcinoma cells. The series is described as follows: Cell-proliferation assay using Alamar Blue dye. The class given is cell-based. The settings on record: Homo sapiens.
The test system of another series is MV-4-11. The series is described as follows: Cell proliferation modulatory activity, MV-4-11. In kind it is cell-based. The conditions noted are these: Homo sapiens, MV4-11.
Series [5] concerns MiaPaca human pancreatic carcinoma cells. Put plainly: Cell-proliferation assay using Alamar Blue dye. The class given is cell-based. The settings on record: MIA PaCa-2. The essentials:
as §1

A further series has as its target Flt3 (Homo sapiens (Human), UniProt P36888). Put plainly: FLT-3 kinase activity in cell free in vitro assay. In kind it is biochemical. The conditions noted are these: cell-free; read-out: FLT-3.
[6] abbreviates: HCT-116, HCT-116, second column, read-out: HCT-116 (uM), cell proliferation modulatory activity.
The mark [7] stands for this setting: HCT-116, read-out: HCT-116 (uM), cell proliferation modulatory activity, HCT-116, second column.

recombinant human CK2, sequence (P68400 whole entry): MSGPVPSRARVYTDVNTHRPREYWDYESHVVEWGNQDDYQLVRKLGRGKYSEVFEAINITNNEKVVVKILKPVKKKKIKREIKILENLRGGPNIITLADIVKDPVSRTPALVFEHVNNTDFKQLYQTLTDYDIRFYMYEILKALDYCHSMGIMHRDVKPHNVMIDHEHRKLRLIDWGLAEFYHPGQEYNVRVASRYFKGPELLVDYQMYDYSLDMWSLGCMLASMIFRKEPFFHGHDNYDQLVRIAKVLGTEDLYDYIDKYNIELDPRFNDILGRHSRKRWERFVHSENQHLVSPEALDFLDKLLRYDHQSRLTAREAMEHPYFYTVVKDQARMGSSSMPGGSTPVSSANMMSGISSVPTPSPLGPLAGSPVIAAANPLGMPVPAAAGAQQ
recombinant human CK2, sequence (P67870 whole entry partner): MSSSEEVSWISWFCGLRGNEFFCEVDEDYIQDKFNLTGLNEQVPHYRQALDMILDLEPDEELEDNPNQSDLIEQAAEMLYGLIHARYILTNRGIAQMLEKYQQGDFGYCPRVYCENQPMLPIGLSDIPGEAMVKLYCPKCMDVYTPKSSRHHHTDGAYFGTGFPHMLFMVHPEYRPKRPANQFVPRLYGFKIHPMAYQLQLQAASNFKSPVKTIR
PARP-HSA enzyme, sequence (P09874 whole entry): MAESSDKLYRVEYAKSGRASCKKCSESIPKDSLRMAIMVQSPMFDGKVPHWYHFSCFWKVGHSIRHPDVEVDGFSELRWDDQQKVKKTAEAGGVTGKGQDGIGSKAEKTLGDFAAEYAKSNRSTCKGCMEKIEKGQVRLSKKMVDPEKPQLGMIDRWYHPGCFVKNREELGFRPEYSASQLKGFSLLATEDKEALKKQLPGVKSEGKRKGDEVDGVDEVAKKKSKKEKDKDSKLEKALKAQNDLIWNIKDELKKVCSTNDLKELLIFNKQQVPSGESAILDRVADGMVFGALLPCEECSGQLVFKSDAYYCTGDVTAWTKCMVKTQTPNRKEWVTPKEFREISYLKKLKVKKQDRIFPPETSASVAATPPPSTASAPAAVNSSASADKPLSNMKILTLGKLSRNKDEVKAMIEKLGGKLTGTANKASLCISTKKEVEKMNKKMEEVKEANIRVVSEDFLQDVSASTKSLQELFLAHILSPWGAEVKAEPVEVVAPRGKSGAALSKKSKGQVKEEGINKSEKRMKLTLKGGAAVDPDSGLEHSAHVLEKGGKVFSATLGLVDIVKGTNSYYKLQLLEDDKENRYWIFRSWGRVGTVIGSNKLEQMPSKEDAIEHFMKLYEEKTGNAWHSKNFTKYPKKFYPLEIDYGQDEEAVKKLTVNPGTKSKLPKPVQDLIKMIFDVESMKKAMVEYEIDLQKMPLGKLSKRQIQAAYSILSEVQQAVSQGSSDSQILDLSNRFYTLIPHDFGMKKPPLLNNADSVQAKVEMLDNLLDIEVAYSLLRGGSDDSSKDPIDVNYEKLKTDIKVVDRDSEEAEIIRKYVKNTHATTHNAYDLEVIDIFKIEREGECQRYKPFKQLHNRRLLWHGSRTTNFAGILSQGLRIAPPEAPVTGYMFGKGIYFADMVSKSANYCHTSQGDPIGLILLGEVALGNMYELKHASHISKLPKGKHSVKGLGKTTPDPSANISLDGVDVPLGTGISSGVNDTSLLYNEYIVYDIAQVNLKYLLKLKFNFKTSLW
Flt3, sequence (P36888 27-993): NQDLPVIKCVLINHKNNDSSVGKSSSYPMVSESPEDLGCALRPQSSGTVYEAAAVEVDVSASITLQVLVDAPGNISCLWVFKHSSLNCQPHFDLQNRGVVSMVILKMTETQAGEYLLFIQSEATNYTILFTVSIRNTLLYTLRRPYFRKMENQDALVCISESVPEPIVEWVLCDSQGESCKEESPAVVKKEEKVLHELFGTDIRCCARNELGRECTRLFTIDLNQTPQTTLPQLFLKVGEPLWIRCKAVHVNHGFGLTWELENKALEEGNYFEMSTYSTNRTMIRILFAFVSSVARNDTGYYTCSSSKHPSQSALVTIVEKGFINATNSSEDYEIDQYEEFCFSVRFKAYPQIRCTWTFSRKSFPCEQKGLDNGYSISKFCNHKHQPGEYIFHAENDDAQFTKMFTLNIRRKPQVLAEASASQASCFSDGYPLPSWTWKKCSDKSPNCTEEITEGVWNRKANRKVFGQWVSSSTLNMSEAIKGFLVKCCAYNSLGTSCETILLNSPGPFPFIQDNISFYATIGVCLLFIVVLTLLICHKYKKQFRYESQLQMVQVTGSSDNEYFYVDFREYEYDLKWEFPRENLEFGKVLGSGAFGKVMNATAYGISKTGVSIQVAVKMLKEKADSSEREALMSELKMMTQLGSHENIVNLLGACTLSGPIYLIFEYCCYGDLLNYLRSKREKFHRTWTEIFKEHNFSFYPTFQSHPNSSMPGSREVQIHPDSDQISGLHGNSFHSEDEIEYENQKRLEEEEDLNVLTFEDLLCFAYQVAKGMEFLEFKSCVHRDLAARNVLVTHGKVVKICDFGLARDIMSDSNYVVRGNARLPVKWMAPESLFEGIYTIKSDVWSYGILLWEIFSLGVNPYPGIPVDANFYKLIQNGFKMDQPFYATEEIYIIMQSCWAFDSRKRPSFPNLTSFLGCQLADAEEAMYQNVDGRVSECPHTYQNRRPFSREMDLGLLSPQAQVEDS

As for `O=C(Nc1ccc(N2CCOCC2)cc1)c1ccc2c(c1)[nH]c(=O)c1ccsc12`, the inhibition at 10 µM at recombinant human CK2 was -3%. Also, the “PARP % inhib @ 1 uM” value on PARP-HSA enzyme is given as 0%.

For `CN(C)CCOc1ccc(Nc2nc3c(-c4nnc[nH]4)cccc3c3cnccc23)c(F)c1`, the IC50 is 2180 nM in the series with MDA MB231, under 100 nM in the series on MV-411, under 1000 nM in the series on K-562 [1] and 12 µM in series [2].

In the case of `COc1ccc(NC(=O)c2ccc3c(c2)[nH]c(=O)c2ccsc23)c(OC)c1`, the inhibition at 10 µM at recombinant human CK2 worked out at 3%. On PARP-HSA enzyme, the “PARP % inhib @ 1 uM” value is given as 0%.

As to `C#Cc1cccc(Nc2nc3cc(C(=O)O)ccc3c3cncnc23)c1` [drawing 1544], the inhibition at 0.5 µM at recombinant human PIM1 (cell-free) stood at 65.9%. In addition, the IC50 on recombinant human PIM1 (cell-free) was 306 nM; in the series with K-562 [3], 2.48 µM; in the series with Jurkat, 3.34 µM; in [4] (setting [6]) it was 5.86 µM; with MV-4-11 it was 0.464 µM.

With `CCOC(=O)c1ccc(Nc2nc3c(-c4nnc[nH]4)cccc3c3cnccc23)c(Cl)c1`, the IC50 with MDA MB231 is over 10000 nM; on recombinant human PIM1 it was under 100 nM; in the series with MV-411, under 100 nM; in the series with K-562 [1] it was over 10000 nM; in series [5] it was over 10000 nM; in series [2] it was over 30 µM.

With `COc1cccc(Nc2nc3cc(C(=O)O)ccc3c3cnccc23)c1`, the inhibition at 0.5 µM at recombinant human PIM1 (cell-free) is 75.9%. For the same compound, the IC50 on recombinant human PIM1 (cell-free) was 88 nM; at Flt3, 9 nM; with K-562 [3], 5.86 µM; in the series on Jurkat, 6.52 µM; in the series with MV-4-11 it was 1.12 µM.

For `O=C(O)c1ccc2c(c1)nc(Nc1ccccc1)c1ccccc12` [drawing 564], the “PARP Inhibition” value at PARP-HSA enzyme was 9% (at 1 μM).

`O=C(O)c1ccc2c(c1)nc(OCCCO)c1ccccc12` [drawing 559]: on recombinant human CK2, the inhibition at 5 µM worked out at 38%. Besides, at PARP-HSA enzyme, the IC50 is 400 nM.

As to `O=C(O)c1ccc2c(c1)nc(Nc1ccc(Cl)cc1)c1ccncc12`, the inhibition at 0.5 µM at recombinant human PIM1 (cell-free) was 83%. The IC50 on recombinant human PIM1 (cell-free) is 284 nM; with K-562 [3], 8.65 µM; in the series on Jurkat it was 2.52 µM; in series [4] (setting [7]), 6.72 µM; in the series with MV-4-11, 1.56 µM.

As for `O=C(O)c1ccc2c(c1)nc(Nc1ccccc1)c1ccsc12`, the inhibition at 0.5 µM on recombinant human PIM1 (cell-free) is 15.7%. Also, the IC50 on recombinant human PIM1 (cell-free) was 454 nM; in the series on K-562 [3], over 10 µM; with Jurkat, 6.12 µM; in [4] (HCT-116, read-out: HCT-116 (uM), cell proliferation modulatory activity, HCT-116, first column) it was 10 µM; in [4] (setting [7]), over 10 µM; in the series with MV-4-11 it was 8.33 µM.

With `O=C(O)c1ccc2c3sccc3c(=O)n(CCCO)c2c1`, the “PARP % inhib @ 1 uM” value on PARP-HSA enzyme came out at 21%.

With `O=C(O)c1ccc2c(c1)nc(Nc1cccc(Cl)c1)c1ccncc12` [drawing 1512], the inhibition at 0.5 µM on recombinant human PIM1 (cell-free) is 90%; at recombinant human CK2 (500 nM compound, cell-free, read-out: CK2: % inh 500 nM) it was 102%. Further, the IC50 with K-562 [3] was 4.39 µM; in the series with Jurkat it was 3.42 µM; in series [4] (setting [6]), 5.09 µM; with MV-4-11, 1.68 µM.

`NCc1ccc(Nc2nc3c(-c4nnc[nH]4)cccc3c3cnccc23)cc1`: the IC50 is 9640 nM in the series with MDA MB231; under 100 nM at recombinant human PIM1; under 100 nM in the series with MV-411; over 10000 nM in the series on K-562 [1]; over 30 µM in series [2].

Regarding `O=C(O)c1ccc2c(c1)nc(Nc1cccc(F)c1)c1ccsc12`, the inhibition at 0.5 µM on recombinant human PIM1 (cell-free) is 82.7%. The IC50 is 136 nM on recombinant human PIM1 (cell-free); over 10 µM in the series with K-562 [3]; 5.92 µM in the series with Jurkat; over 10 µM in [4] (setting [7]); 0.475 µM in the series with MV-4-11.

As for `O=C(O)c1ccc2c(c1)[nH]c(=O)c1ccccc12`, the inhibition at 5 µM at recombinant human CK2 turned out to be 28%. Moreover, the IC50 on PARP-HSA enzyme was 70 nM.

On to `O=C(O)c1ccc2c3ccccc3c(=O)n(CCCO)c2c1`, for which the inhibition at 5 µM on recombinant human CK2 came to 29%. Moreover, the IC50 on PARP-HSA enzyme was determined as 60 nM.

Turning to `O=C(Nc1ccccc1)c1ccc2c(c1)[nH]c(=O)c1ccsc12`, the inhibition at 10 µM at recombinant human CK2 worked out at 22%. Moreover, at PARP-HSA enzyme, the “PARP % inhib @ 1 uM” value is given as 0%.

As to `CNC(=O)c1cccc2c1nc(Nc1cccc(Cl)c1)c1ccncc12` [drawing 2307], the IC50 was over 10000 nM in the series with MDA MB231; under 100 nM at recombinant human PIM1; under 100 nM with MV-411; over 10000 nM in the series on K-562 [1]; under 500 nM in series [5]; over 30 µM in series [2].

Turning to `CN1CCN(c2ccc(Nc3nc4c(-c5nnc[nH]5)cccc4c4cnccc34)c(Cl)c2)CC1`, the IC50 in the series on MDA MB231 is 2940 nM; with MV-411, under 100 nM; in the series with K-562 [1] it was under 1000 nM; in series [5], 1500 nM; in [2], 3.66 µM.

`O=C(O)c1ccc2c(c1)[nH]c(=O)c1ccncc12`: the IC50 on PARP-HSA enzyme stood at 1000 nM.

`COC(=O)c1ccc2c(c1)nc(Cl)c1ccsc12` [drawing 695]: the inhibition at 10 µM on recombinant human CK2 was found to be 18%. The “PARP % inhib @ 1 uM” value at PARP-HSA enzyme came out at 18%.

As for `O=c1[nH]c2cc(-c3nnn[nH]3)ccc2c2ccccc12`, at PARP-HSA enzyme, the IC50 worked out at 30 nM.

As to `COC(=O)c1ccc2c(c1)[nH]c(=O)c1ccncc12` [drawing 562], at PARP-HSA enzyme, the IC50 was found to be 800 nM.

With `O=C(O)c1ccc2c(c1)nc(Nc1cccc(Cl)c1)c1ncncc12`, the inhibition at 0.5 µM at recombinant human PIM1 (cell-free) came to 68.2%. The IC50 is 370 nM on recombinant human PIM1 (cell-free); 1.13 µM in the series on K-562 [3]; 0.882 µM in the series with Jurkat; 7.19 µM in series [4] (setting [7]); over 10 µM in the series with MV-4-11.

As for `CN(C)CCNc1nc2cc(C(=O)O)ccc2c2ccccc12` [drawing 563], the “PARP Inhibition” value on PARP-HSA enzyme is 15% (at 1 μM).

Turning to `COc1ccccc1NC(=O)c1ccc2c(c1)[nH]c(=O)c1ccsc12`, the inhibition at 10 µM on recombinant human CK2 was -7%. In addition, the “PARP % inhib @ 1 uM” value at PARP-HSA enzyme came to 0%.

Consider `Oc1ccc(Nc2nc3c(-c4nnc[nH]4)cccc3c3cnccc23)c(Cl)c1`, for which the IC50 with MDA MB231 is 2380 nM; on recombinant human PIM1 it was under 100 nM; in the series on MV-411, over 10000 nM; in the series on K-562 [1], under 500 nM; in series [5], under 1000 nM; in series [2], under 0.5 µM.

As for `O=C(O)c1ccc2c(c1)nc(Nc1ccc(F)c(Cl)c1)c1ccncc12`, the inhibition at 0.5 µM on recombinant human PIM1 (cell-free) came to 82%. In addition, the IC50 stood at 115 nM at recombinant human PIM1 (cell-free); 41 nM on Flt3; 7.44 µM in the series with K-562 [3]; 2.68 µM in the series with Jurkat; 4.34 µM in series [4] (setting [7]); 1.7 µM in the series with MV-4-11.

Regarding `CN(C)CCn1c(=O)c2ccsc2c2ccc(C(=O)O)cc21`, at PARP-HSA enzyme, the “PARP % inhib @ 1 uM” value is reported as 5%.

As for `O=c1[nH]c2cc(-c3nn[nH]n3)ccc2c2sccc12`, the “PARP % inhib @ 1 uM” value at PARP-HSA enzyme was 39%.

`CS(=O)(=O)c1ccc(Nc2nc3c(-c4nnc[nH]4)cccc3c3cnccc23)c(Cl)c1`: the IC50 in the series with MDA MB231 is 2730 nM; at recombinant human PIM1 it was under 100 nM; in the series on MV-411, under 100 nM; with K-562 [1] it was 2660 nM; in series [2], 1.51 µM.

Turning to `COCCOc1ccc(Nc2nc3c(-c4nnc[nH]4)cccc3c3cnccc23)c(F)c1`, the IC50 with MDA MB231 was under 1000 nM; on recombinant human PIM1, under 100 nM; in the series with MV-411, under 100 nM; with K-562 [1], under 500 nM; in series [5], under 1000 nM.

The values are drawn from patent US8168651B2, “Protein kinase modulators” (Cylene Pharmaceuticals, Inc., priority 2008, dated 2012).
